{
  "source": "ChEMBL document CHEMBL5661983",
  "about": "“The selective anaplastic lymphoma receptor tyrosine kinase inhibitor ASP3026 induces tumor regression and prolongs survival in non-small cell lung cancer model mice” (Mol Cancer Ther, 2014)",
  "key": {"in vivo [1]": {"experiment": "in vivo", "details": "NOD.CB17-Prkdcscid/J, mouse, tumour, po, 10 mg/kg"}, "NCI-H2228 [2]": {"tested_on": "NCI-H2228", "experiment": "Antitumor activity against human NCI-H2228 cells xenografted in NOD.CB17-Prkdcscid/J mouse assessed as tumor growth inhibition at 3 mg/kg, po administered once daily for 2 weeks relative to control", "type": "functional", "details": "NCI-H2228, 336 h, read-out: TGI"}, "[3]": {"experiment": "Cmax in human NCI-H2228 cell xenografted NOD.CB17-Prkdcscid/J mouse tumor at 10 mg/kg/day for 5 days by HPLC-MS analysis", "type": "ADME, organism-based, Neoplasm", "details": "route po, time 5 day"}, "[4]": {"experiment": "AUC (0 to 24 hrs) in human NCI-H2228 cell xenografted NOD.CB17-Prkdcscid/J mouse plasma at 10 mg/kg/day for 5 days by HPLC-MS analysis", "type": "ADME, organism-based", "details": "route po, time 5 day"}, "[5]": {"biological_target": "Tyrosine-protein kinase Yes (Homo sapiens, UniProt P07947)", "sequence (P07947 whole entry)": "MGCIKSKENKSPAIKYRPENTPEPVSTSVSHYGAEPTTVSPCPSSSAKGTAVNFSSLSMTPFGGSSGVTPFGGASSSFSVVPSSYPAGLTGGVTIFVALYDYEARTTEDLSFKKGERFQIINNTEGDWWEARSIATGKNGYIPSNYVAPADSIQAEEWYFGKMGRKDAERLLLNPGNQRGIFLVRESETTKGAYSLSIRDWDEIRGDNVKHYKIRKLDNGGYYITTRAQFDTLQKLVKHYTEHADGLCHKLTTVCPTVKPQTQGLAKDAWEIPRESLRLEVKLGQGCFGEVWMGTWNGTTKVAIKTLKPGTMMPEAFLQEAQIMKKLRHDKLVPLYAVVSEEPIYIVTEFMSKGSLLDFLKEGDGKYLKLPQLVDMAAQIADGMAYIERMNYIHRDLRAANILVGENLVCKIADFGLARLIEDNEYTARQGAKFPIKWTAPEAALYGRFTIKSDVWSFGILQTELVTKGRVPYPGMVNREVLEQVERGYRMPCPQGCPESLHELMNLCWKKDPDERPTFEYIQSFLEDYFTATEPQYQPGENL"}, "[6]": {"biological_target": "T1, ALK tyrosine kinase receptor (Homo sapiens, UniProt Q9UM73)", "T1 sequence (Q9UM73 19-1620 limits assumed)": "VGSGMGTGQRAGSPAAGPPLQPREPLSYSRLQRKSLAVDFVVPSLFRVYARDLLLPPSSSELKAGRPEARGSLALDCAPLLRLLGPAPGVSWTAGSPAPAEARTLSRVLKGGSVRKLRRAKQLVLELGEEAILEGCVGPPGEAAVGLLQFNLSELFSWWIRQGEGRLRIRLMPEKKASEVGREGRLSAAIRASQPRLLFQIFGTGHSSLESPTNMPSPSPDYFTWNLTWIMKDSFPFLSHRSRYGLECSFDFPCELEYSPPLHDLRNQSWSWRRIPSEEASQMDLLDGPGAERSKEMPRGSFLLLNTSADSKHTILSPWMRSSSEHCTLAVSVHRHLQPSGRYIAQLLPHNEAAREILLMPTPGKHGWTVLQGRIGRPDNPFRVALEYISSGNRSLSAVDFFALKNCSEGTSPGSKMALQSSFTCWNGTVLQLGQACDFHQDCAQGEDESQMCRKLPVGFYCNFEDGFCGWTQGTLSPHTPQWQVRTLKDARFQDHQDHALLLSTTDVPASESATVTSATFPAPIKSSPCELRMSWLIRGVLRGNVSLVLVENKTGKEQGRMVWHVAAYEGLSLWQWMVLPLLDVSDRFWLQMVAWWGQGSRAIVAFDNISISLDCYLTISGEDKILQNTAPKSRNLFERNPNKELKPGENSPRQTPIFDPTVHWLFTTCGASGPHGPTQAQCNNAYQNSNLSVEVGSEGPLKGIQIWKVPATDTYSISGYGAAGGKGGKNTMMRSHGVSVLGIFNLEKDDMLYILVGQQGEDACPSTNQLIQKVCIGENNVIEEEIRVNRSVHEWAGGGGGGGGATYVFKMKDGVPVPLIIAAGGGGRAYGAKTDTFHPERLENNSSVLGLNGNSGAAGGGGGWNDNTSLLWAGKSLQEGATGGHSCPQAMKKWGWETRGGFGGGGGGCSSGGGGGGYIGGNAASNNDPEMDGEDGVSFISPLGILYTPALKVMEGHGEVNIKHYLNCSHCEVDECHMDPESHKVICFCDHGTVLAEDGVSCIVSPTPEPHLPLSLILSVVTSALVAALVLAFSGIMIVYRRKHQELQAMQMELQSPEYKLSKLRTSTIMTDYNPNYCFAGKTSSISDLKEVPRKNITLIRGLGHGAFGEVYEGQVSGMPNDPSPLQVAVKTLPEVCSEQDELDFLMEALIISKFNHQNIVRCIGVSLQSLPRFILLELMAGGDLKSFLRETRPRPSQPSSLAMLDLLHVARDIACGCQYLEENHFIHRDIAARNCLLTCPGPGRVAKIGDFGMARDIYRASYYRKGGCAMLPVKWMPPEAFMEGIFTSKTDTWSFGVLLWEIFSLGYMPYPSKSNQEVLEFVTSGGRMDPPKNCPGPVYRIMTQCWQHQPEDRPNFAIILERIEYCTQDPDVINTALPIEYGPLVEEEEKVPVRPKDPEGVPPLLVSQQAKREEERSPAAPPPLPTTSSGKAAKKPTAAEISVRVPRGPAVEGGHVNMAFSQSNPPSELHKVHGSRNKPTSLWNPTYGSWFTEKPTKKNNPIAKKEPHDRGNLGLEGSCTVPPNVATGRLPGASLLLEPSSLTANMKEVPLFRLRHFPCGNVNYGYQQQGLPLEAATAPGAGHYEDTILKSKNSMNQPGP", "experiment": "Inhibition of ALK in human NCI-H2228 cells assessed as reduction in ERK phosphorylation by measuring phosphorylated ERK level at 1000 nmol/L measured after 4 hrs by Western blot analysis relative to control", "type": "cell-based", "parameters": "scale not given: the % may be the effect or the level left"}, "[7]": {"biological_target": "Tyrosine-protein kinase Lck (Homo sapiens, UniProt P06239)", "sequence (P06239 whole entry)": "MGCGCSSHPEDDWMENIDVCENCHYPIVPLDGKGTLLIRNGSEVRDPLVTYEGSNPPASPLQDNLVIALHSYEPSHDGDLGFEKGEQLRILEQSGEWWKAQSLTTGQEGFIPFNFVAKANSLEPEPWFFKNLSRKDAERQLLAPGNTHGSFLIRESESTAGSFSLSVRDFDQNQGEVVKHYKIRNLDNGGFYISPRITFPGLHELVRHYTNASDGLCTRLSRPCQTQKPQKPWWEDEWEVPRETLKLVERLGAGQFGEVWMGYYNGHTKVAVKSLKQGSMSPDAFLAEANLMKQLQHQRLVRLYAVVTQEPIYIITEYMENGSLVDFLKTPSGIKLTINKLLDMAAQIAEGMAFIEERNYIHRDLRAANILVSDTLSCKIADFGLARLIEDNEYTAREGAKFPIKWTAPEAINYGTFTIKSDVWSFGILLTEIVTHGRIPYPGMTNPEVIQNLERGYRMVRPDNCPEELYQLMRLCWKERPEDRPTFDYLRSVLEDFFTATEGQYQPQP"}, "NCI-H2228 [8]": {"tested_on": "NCI-H2228", "experiment": "Antitumor activity against human NCI-H2228 cells xenografted in NOD.CB17-Prkdcscid/J mouse assessed as tumor regression at 3 mg/kg, po administered once daily for 2 weeks relative to control", "type": "functional"}, "[9]": {"experiment": "Tmax in human NCI-H2228 cell xenografted NOD.CB17-Prkdcscid/J mouse plasma at 1 mg/kg/day for 5 days by HPLC-MS analysis", "type": "ADME, organism-based", "details": "route po, time 5 day"}, "NCI-H2228 [10]": {"tested_on": "NCI-H2228", "experiment": "Antitumor activity against human NCI-H2228 cells xenografted in NOD.CB17-Prkdcscid/J mouse assessed as tumor regression at 10 mg/kg, po administered once daily for 2 weeks relative to control", "type": "functional"}, "[11]": {"biological_target": "T1, ALK tyrosine kinase receptor", "experiment": "Inhibition of ALK in human NCI-H2228 cells assessed as reduction in ERK phosphorylation by measuring phosphorylated ERK level at 100 nmol/L measured after 4 hrs by Western blot analysis relative to control", "type": "cell-based", "parameters": "scale not given: the % may be the effect or the level left"}, "[12]": {"biological_target": "T1, ALK tyrosine kinase receptor", "experiment": "Inhibition of ALK in human NCI-H2228 cells assessed as reduction in AKT phosphorylation by measuring phosphorylated AKT level at 10 nmol/L measured after 4 hrs by Western blot analysis relative to control", "type": "cell-based", "parameters": "scale not given: the % may be the effect or the level left"}, "NCI-H2228-Luc [13]": {"tested_on": "NCI-H2228-Luc", "details": "dose 30 mg/kg; route po; time 90 day"}, "NCI-H2228 [14]": {"tested_on": "NCI-H2228", "experiment": "Antitumor activity against human NCI-H2228 cells xenografted in po dosed NOD.CB17-Prkdcscid/J mouse assessed as tumor growth inhibition administered once daily for 2 weeks", "type": "functional, organism-based", "details": "dose 1-30 mg/kg"}, "[15]": {"biological_target": "T1, ALK tyrosine kinase receptor", "experiment": "Inhibition of ALK in human NCI-H2228 cells assessed as reduction in STAT3 phosphorylation by measuring phosphorylated STAT3 level at 10 nmol/L measured after 4 hrs by Western blot analysis relative to control", "type": "cell-based", "parameters": "scale not given: the % may be the effect or the level left"}, "[16]": {"experiment": "Cmax in human NCI-H2228 cell xenografted NOD.CB17-Prkdcscid/J mouse tumor at 1 mg/kg/day for 5 days by HPLC-MS analysis", "type": "ADME, organism-based, Neoplasm", "details": "route po, time 5 day"}, "NCI-H2228 [17]": {"tested_on": "NCI-H2228", "experiment": "Antitumor activity against human NCI-H2228 cells xenografted in NOD.CB17-Prkdcscid/J mouse assessed as tumor growth inhibition at 1 mg/kg, po administered once daily for 2 weeks relative to control", "type": "functional", "details": "NCI-H2228, 336 h, read-out: TGI"}, "[18]": {"biological_target": "T1, ALK tyrosine kinase receptor", "experiment": "Inhibition of ALK phosphorylation in human NCI-H2228 cells assessed as phosphorylated ALK level at 1000 nmol/L measured after 4 hrs by Western blot analysis relative to control", "type": "cell-based", "parameters": "scale not given: the % may be the effect or the level left"}, "NCI-H2228 [19]": {"tested_on": "NCI-H2228", "experiment": "Antitumor activity against human NCI-H2228 cells xenografted in NOD.CB17-Prkdcscid/J mouse assessed as tumor growth inhibition at 10 mg/kg, po administered once daily for 2 weeks relative to control", "type": "functional", "details": "NCI-H2228, 336 h, read-out: TGI"}, "NCI-H2228 [20]": {"tested_on": "NCI-H2228", "experiment": "Potentiation of carboplatin-induced antitumor activity against human NCI-H2228 cells xenografted in NOD.CB17-Prkdcscid/J mouse assessed as reduction in tumor volume at 10 mg/kg, po administered once daily for 5 days", "type": "functional, organism-based", "details": "time 5.0 day"}, "[21]": {"experiment": "AUC (0 to 24 hrs) in human NCI-H2228 cell xenografted NOD.CB17-Prkdcscid/J mouse plasma at 3 mg/kg/day for 5 days by HPLC-MS analysis", "type": "ADME, organism-based", "details": "route po, time 5 day"}, "[22]": {"experiment": "In vivo inhibition of ALK autophosphorylation in human NCI-H2228 cell xenografted NOD.CB17-Prkdcscid/J mouse assessed as phosphorylated ALK level at 10 mg/kg, po administered as single dose measured after 4 hrs by immunoblotting method relative to control", "type": "functional", "parameters": "scale not given: the % may be the effect or the level left"}, "NCI-H2228 [23]": {"tested_on": "NCI-H2228", "experiment": "Antitumor activity against human NCI-H2228 cells xenografted in NOD.CB17-Prkdcscid/J mouse assessed as tumor growth inhibition at 30 mg/kg, po administered once daily for 2 weeks relative to control", "type": "functional", "details": "NCI-H2228, 336 h, read-out: TGI"}, "NCI-H2228-Luc [24]": {"tested_on": "NCI-H2228-Luc", "experiment": "Antitumor activity against human NCI-H2228-Luc cells intrahepatically xenografted in NOD.CB17-Prkdcscid/J mouse assessed as reduction in tumor burden by measuring bioluminescence emission at 30 mg/kg, po administered once daily for 3 weeks starting from 14 days post-cell inoculation and measured on day 14 by bioluminescent imaging analysis (reference value: 3.3 x 10^8 photon/sec)", "type": "functional", "details": "time 14 day"}, "[25]": {"biological_target": "T1, ALK tyrosine kinase receptor", "experiment": "Inhibition of ALK in human NCI-H2228 cells assessed as reduction in STAT3 phosphorylation by measuring phosphorylated STAT3 level at 100 nmol/L measured after 4 hrs by Western blot analysis relative to control", "type": "cell-based", "parameters": "scale not given: the % may be the effect or the level left"}, "in vivo [26]": {"experiment": "in vivo", "details": "NOD.CB17-Prkdcscid/J, mouse, tumour, po, 3 mg/kg"}, "[27]": {"biological_target": "Macrophage-stimulating protein receptor (Homo sapiens, UniProt Q04912)", "sequence (Q04912 25-304 limits assumed)": "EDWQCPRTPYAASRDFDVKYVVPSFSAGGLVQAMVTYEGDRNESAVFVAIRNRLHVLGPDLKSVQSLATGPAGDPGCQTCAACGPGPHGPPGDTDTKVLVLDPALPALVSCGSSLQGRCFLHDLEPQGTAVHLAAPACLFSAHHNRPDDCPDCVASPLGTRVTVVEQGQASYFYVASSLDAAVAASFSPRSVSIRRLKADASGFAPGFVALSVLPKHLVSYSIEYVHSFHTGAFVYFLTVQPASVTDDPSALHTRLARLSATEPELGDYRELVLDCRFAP", "sequence (Q04912 310-1400 limits assumed)": "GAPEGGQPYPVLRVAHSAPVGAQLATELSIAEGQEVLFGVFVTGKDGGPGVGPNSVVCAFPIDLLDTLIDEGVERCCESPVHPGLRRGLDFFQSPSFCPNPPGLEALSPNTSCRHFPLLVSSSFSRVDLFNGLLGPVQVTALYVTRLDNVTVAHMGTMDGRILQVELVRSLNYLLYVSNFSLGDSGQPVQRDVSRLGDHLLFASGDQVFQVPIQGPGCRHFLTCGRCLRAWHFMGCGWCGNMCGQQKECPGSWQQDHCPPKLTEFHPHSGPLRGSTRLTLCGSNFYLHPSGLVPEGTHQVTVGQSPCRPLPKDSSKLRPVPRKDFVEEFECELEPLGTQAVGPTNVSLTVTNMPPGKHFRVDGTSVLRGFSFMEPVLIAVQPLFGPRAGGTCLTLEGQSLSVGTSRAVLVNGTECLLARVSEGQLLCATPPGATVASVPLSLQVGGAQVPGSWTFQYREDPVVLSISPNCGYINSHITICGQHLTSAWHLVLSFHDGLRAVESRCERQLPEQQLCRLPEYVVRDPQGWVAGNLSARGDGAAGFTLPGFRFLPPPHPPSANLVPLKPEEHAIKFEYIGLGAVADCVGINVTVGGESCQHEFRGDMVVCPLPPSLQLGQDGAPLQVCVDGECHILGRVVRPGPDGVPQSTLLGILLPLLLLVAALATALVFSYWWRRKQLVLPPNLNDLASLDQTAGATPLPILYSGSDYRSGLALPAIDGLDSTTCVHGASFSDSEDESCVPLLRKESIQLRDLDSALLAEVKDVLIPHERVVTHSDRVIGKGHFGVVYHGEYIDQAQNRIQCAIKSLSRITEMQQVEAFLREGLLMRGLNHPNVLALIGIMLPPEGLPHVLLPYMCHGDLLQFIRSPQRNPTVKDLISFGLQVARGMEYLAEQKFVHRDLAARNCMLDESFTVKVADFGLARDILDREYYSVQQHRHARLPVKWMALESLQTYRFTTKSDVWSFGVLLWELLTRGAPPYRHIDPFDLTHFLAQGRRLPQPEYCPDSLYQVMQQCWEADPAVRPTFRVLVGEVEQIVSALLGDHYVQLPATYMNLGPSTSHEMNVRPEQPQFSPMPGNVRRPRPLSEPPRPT"}, "[28]": {"experiment": "Ratio of Cmax in human NCI-H2228 cell xenografted NOD.CB17-Prkdcscid/J mouse tumor to plasma at 3 mg/kg/day for 5 days by HPLC-MS analysis", "type": "ADME, organism-based", "details": "tumor and plasma, route po, time 5 day"}, "[29]": {"biological_target": "T1, ALK tyrosine kinase receptor", "experiment": "Inhibition of ALK phosphorylation in human NCI-H2228 cells assessed as phosphorylated ALK level at 10 nmol/L measured after 4 hrs by Western blot analysis relative to control", "type": "cell-based", "parameters": "scale not given: the % may be the effect or the level left"}, "[30]": {"experiment": "Tmax in human NCI-H2228 cell xenografted NOD.CB17-Prkdcscid/J mouse plasma at 3 mg/kg/day for 5 days by HPLC-MS analysis", "type": "ADME, organism-based", "details": "route po, time 5 day"}, "Mus musculus": {"tested_on": "Mus musculus", "experiment": "Antitumor activity against hEML4-ALK transgenic C57BL/6J mouse assessed as reduction in pulmonary tumor size at 30 to 100 mg/kg, po administered daily for 10 days and measured on day 7 and 11 by computed tomography scan analysis", "type": "functional, organism-based", "details": "dose 30-100 mg/kg, time 7-11 day"}, "[31]": {"biological_target": "ALK tyrosine kinase receptor (Homo sapiens, UniProt Q9UM73, F1174L)", "sequence (Q9UM73 19-1620 F1174L limits assumed)": "as the sequence (Q9UM73 19-1620 limits assumed) above, with F1156L counted along it"}, "EML4-ALK": {"biological_target": "EML4-ALK (Homo sapiens, UniProt Q9UM73, L1196M)", "sequence (Q9UM73 19-1620 L1196M limits assumed)": "as the sequence (Q9UM73 19-1620 limits assumed) above, with L1178M counted along it", "type": "cell-based, BaF3"}, "in vivo [32]": {"experiment": "in vivo", "details": "NOD.CB17-Prkdcscid/J, mouse, tumour, po, 1 mg/kg"}},
  "note": "Activity calls are given as the source filed them. No cut-off for these calls is given here.",
  "data": [
    {"smiles": "COc1cc(N2CCC(N3CCN(C)CC3)CC2)ccc1Nc1ncnc(Nc2ccccc2S(=O)(=O)C(C)C)n1", "note": "[ASP-3026]", "values": [
      {"measurement": "Kp at 120 h", "setting": "in vivo [1]", "value": 20},
      {"measurement": "inhibition in vivo at 3 mg/kg", "setting": "NCI-H2228 [2]", "value": "> 100", "unit": "%"},
      {"measurement": "Cmax", "setting": "[3]", "value": 8990, "unit": "ng/g"},
      {"measurement": "AUC at 120 h", "setting": "[4]", "value": 5990, "unit": "ng·h/mL"},
      {"measurement": "IC50", "setting": "[5]", "value": 31.5, "unit": "nM"},
      {"measurement": "Activity", "setting": "[6]", "value": 36, "unit": "%"},
      {"measurement": "IC50", "setting": "[7]", "value": "> 100", "unit": "nM"},
      {"measurement": "Activity", "setting": "NCI-H2228 [8]", "value": 4, "unit": "%"},
      {"measurement": "Tmax", "setting": "[9]", "value": 4, "unit": "h"},
      {"measurement": "Activity", "setting": "NCI-H2228 [10]", "value": 45, "unit": "%"},
      {"measurement": "Activity", "setting": "[11]", "value": 54, "unit": "%"},
      {"measurement": "Activity", "setting": "[12]", "value": 120, "unit": "%"},
      {"measurement": "MST", "setting": "NCI-H2228-Luc [13]", "value": ">90", "unit": "days"},
      {"measurement": "TGI", "setting": "NCI-H2228 [14]", "value": "Dose-Dependent Effect"},
      {"measurement": "Activity", "setting": "[15]", "value": 88, "unit": "%"},
      {"measurement": "Cmax", "setting": "[16]", "value": 850, "unit": "ng/g"},
      {"measurement": "inhibition in vivo at 1 mg/kg", "setting": "NCI-H2228 [17]", "value": 69, "unit": "%"},
      {"measurement": "Activity", "setting": "[18]", "value": 9, "unit": "%"},
      {"measurement": "inhibition in vivo at 10 mg/kg", "setting": "NCI-H2228 [19]", "value": "> 100", "unit": "%"},
      {"measurement": "Activity", "setting": "NCI-H2228 [20]", "value": "inactive"},
      {"measurement": "AUC at 120 h", "setting": "[21]", "value": 1820, "unit": "ng·h/mL"},
      {"measurement": "Activity", "setting": "[22]", "value": "~20", "unit": "%"},
      {"measurement": "inhibition in vivo at 30 mg/kg", "setting": "NCI-H2228 [23]", "value": "> 100", "unit": "%"},
      {"measurement": "Activity", "setting": "NCI-H2228-Luc [24]", "value": "4.2 10^6No_unit"},
      {"measurement": "Activity", "setting": "[25]", "value": 52, "unit": "%"},
      {"measurement": "Kp at 120 h", "setting": "in vivo [26]", "value": 19},
      {"measurement": "IC50", "setting": "[27]", "value": "> 1000", "unit": "nM"},
      {"measurement": "Kp at 120 h", "setting": "[28]", "value": 16},
      {"measurement": "Activity", "setting": "[29]", "value": 70, "unit": "%"},
      {"measurement": "Tmax", "setting": "[30]", "value": 4, "unit": "h"},
      {"measurement": "Activity", "setting": "Mus musculus", "value": "Active"},
      {"measurement": "IC50", "setting": "[31]", "value": 10, "unit": "nM"},
      {"measurement": "IC50", "setting": "EML4-ALK", "value": 32, "unit": "nM"},
      {"measurement": "Kp at 120 h", "setting": "in vivo [32]", "value": 22}
    ]}
  ]
}
